The values that follow come from publication PMC9218946, “Identification of a Subtype-Selective Allosteric Inhibitor of GluN1/GluN3 NMDA Receptors” (Frontiers in Pharmacology, 2022).

One test concerns the target T1, GluN1/GluN2A (Homo sapiens, UniProt Q05586+Q12879).
T1 construct: expressed in transfected cells; host or cells: Xenopus oocytes
The test can be described thus: GluN1/GluN2A currents (data analyzed from Figure 3D, TEVC in Xenopus oocytes). Type of test: cell-based. As to conditions: 30 μM WZB117. How it is done: Two-electrode voltage-clamp (TEVC) recordings were performed on Xenopus oocytes expressing various subtypes of recombinant NMDARs. Each oocyte was injected with a mixture of 0.5–1.0 ng cDNAs or cRNAs encoding wild-type (WT) or mutant GluN1 (GluN1-1a or GluN1-4a) and GluN2 (2A-2D) or GluN3 (3A-3B) at a ratio of 1:1. The mutant GluN1-4a ^F484A/T518L was injected together with GluN3B to boost the currents of GluN1/GluN3B receptors, and WT GluN1-1a was used unless otherwise stated. The cRNAs of GluN1-4a, GluN3A and GluN3B were transcribed from corresponding DNAs using the mMESSAGE mMACHINE T7 Ultra kit (Life Technologies) according to the manufacturer’s instructions, and the others not specified were cDNAs. TEVC recording was performed 24–72 h post injection in extracellular solution containing (in mM): 100 NaCl, 0.3 BaCl2, 2.5 KCl, 0.01 DTPA and 5 HEPES, and the pH was adjusted to 7.3 using NaOH. All recordings were carried out at a holding potential of −60 mV.
Supplementary Figure S3 Effects of WZB117 on currents from HEK-293 cells co-expressing GluN1/GluN2A/GluN3A subunits. GluN1/GluN2A/GluN3A receptors were expressed on HEK-293 cells at a ratio of GluN1-EGFP: GluN2A: GluN3A = 1:1:2. The GluN1/GluN2A/GluN3A receptors were stimulated by 100 μM glutamate and 100 μM glycine. The data of GluN1/GluN2A were analyzed from Figure 3D. […]

Test [1] deals with T2, chimera GluN3A^670-673 MWPL/LEPF (UniProt Q05586+Q9R1M7, L673F/M670L/W671E).
T2 construct: expressed in transfected cells; host or cells: CHO, transient
T2 sequence (Q9R1M7 24-1135 M670L/W671E/L673F, other chains not shown): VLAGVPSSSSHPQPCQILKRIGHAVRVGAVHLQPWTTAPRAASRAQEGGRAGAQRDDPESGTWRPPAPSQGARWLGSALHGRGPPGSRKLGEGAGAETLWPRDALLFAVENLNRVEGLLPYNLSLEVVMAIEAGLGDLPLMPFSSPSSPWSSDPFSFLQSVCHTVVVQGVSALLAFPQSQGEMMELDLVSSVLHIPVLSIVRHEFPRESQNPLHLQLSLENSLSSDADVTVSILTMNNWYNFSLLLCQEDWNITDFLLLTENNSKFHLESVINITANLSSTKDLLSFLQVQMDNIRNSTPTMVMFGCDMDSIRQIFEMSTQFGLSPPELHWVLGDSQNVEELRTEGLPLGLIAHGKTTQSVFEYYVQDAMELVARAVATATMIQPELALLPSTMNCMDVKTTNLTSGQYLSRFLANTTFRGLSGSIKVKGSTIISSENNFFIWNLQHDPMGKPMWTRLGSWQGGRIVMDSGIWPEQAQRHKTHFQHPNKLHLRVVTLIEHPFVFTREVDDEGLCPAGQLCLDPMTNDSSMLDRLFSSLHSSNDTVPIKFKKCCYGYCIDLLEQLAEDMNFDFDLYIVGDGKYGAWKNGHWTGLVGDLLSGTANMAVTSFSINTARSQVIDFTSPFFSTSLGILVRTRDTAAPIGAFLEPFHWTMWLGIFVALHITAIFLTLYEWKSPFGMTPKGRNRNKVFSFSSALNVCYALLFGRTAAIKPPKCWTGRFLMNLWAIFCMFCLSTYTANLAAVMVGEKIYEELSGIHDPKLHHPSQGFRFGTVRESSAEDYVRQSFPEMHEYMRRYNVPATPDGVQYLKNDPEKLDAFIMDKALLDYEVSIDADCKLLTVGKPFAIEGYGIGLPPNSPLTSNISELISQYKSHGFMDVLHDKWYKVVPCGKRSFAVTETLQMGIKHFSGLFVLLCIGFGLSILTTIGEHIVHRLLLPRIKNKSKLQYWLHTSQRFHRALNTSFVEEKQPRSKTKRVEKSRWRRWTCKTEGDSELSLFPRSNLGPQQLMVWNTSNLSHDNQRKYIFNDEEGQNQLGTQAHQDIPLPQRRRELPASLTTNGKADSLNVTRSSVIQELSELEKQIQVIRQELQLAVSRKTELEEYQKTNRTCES
Nature of the test: Whole-cell patch-clamp on transiently transfected CHO cells, GluN3A chimera. It counts as cell-based. How it is done:
To establish GluN1/GluN3A stable cell lines, the human GluN1-1a (GenBank: NP_015566.1) and the rat GluN3A (GenBank: NP_612555.1) genes were subcloned into the pcDNA5-FRT-To and pcDNA3.1 vectors, respectively. An EGFP tag was added to the C-terminus of GluN1 or GluN3A using a T2A linker for identification of transfected cells during transient transfection. Point mutations were introduced by site-directed mutagenesis using PrimeSTAR (Takara). The human GluN2A (GenBank: NP_000824.1) gene was subcloned into the pcDNA3.1 vector. The chimeras GluN3A^670-673 MWPL/LEPF and GluN2A^550-553 LEPF/MWPL were generated using In-Fusion HD Cloning kits (Takara). All constructs were confirmed by DNA sequencing (Beijing Genomics Institute).
The Flp-in T-Rex 293 cell lines (Invitrogen), stably expressing GluN1/GluN3A were grown in DMEM basal medium (Gibco) supplemented with 10% fetal bovine serum (FBS, Invitrogen), 15 μg/ml blasticidin S (Invitrogen), 50 μg/ml hygromycin B (Invitrogen) and 500 μg/ml G418 (Gibco). Expression in cell lines was induced with 1 μg/ml doxycycline (Invitrogen) 24–28 h prior to the experiments. Chinese hamster ovary (CHO) cells were grown in DMEM-F12 basal medium (Gibco) supplemented with 10% FBS. In the study on the action sites of WZB117, all whole-cell patch-clamp recordings were performed on CHO cells. […]
On the technique in general: The patch-clamp technique gives a direct electrical read-out from membranes.

In the next test the target is GluN1/GluN3A receptors (UniProt Q05586+Q9R1M7). Nature of the test: Whole-cell patch-clamp recording on GluN1/GluN3A Flp-in T-REx 293 stable cell lines. More on the design: expressed in transfected cells. Type of test: cell-based, human GluN1-1a, rat GluN3A.
Sequence of GluN1/GluN3A receptors (Q9R1M7 24-1135, other chains not shown): as the sequence (Q9R1M7 24-1135 M670L/W671E/L673F, other chains not shown) above, with L647M, E648W, F650L counted along it

For orientation: IC50 means the concentration that inhibits the measured activity by half. A low value points to greater potency in that assay.

T1 sequence (Q12879 23-1464, other chains not shown): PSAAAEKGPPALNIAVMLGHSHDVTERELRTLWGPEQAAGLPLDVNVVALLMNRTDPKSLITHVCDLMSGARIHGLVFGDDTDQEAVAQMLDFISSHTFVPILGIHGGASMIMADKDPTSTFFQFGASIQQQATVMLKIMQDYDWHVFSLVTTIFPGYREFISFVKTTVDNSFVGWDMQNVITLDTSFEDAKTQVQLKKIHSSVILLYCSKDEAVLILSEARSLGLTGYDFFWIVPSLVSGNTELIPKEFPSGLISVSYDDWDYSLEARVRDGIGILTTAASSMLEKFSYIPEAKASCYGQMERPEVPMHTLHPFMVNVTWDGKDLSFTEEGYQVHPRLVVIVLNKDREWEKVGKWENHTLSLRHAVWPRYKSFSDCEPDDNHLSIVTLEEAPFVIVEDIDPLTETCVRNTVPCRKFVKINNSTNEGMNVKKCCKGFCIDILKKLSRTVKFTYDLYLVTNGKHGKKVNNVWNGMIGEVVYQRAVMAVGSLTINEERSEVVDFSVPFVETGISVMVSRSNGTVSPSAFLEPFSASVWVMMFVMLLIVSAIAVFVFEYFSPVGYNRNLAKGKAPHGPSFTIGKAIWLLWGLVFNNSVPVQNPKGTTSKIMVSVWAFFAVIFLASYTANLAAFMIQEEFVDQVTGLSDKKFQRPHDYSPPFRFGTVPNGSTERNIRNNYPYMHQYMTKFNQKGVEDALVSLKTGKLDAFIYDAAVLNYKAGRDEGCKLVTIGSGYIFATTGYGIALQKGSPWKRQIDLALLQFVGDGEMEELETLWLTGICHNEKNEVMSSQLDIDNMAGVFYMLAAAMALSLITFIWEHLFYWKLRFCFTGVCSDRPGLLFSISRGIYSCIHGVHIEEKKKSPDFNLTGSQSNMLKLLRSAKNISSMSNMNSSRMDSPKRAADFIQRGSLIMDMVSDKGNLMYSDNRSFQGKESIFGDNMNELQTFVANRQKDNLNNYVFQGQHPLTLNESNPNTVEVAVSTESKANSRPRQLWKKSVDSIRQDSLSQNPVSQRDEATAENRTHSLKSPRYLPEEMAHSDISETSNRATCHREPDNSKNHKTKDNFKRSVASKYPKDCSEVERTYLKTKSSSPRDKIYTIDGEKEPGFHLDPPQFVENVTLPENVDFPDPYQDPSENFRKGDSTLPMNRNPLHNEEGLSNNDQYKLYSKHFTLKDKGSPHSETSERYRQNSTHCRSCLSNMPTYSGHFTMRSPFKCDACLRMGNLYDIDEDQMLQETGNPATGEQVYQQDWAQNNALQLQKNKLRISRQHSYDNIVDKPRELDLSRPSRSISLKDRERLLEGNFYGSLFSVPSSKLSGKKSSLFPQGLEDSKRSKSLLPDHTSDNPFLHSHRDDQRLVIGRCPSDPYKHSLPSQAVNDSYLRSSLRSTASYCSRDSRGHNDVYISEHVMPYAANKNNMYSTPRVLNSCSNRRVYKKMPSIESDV

Take `O=C(Oc1cccc(F)c1OC(=O)c1cccc(O)c1)c1cccc(O)c1` [WZB117, 3-fluoro-1,2-phenylene bis(3-hydroxybenzoate)]: the “I drug/I cotrol” value on GluN1/GluN2A was found to be 0.84 ± 0.01. The inhibition on chimera result in test [1] is given as “greatly reduced”. Also, the “voltage-dependence of inhibition activity” value at GluN1/GluN3A receptors (3 μM WZB117, +40 mV and −60 mV) was “no significant change”. Also, the IC50 against GluN1/GluN3A receptors (pH 6.9) came to 1.27 ± 0.39 µM; against GluN1/GluN3A receptors (pH 8.3), 1.09 ± 0.22 µM.
